Drawing on PubChem BioAssay (NCI), this text covers TGI and GI50 for 14 compounds.

SMILES strings stand for the structures.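 How tested: cells in 96-well plates exposed to compound for 48 hours at five concentrations. GI50 marks 50% less growth. At the TGI there is no net growth.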

Holding throughout (test): growth of human tumour cells (NCI), 48 h
The subject of assay [1] is CAKI-1 renal.
In assay [2] the test system is NCI-H23 lung.
Assay [3] concerns OVCAR-8 ovarian.
In assay [4] the test system is SF-268 CNS.
Assay [5] relates to SK-MEL-5 melanoma.
Assay [6] concerns SK-OV-3 ovarian.
In assay [7] the test system is SNB-75 CNS.
Assay [8] concerns TK-10 renal.
The subject of assay [9] is UACC-62 melanoma.

In the case of `COC(=O)N/N=C(\C)c1sc(-c2nc(C)c(/C(C)=N/NC(=O)OC)s2)nc1C`, the TGI in assay [1], in assay [2], in [3], in [4], in assay [5] and in assay [6] was > 100 µM throughout. Further, the TGI in assay [7], in assay [8] and in assay [9] was > 100 µM throughout.
Take `O=[N+]([O-])c1ccc(/C=C/c2ccc(/C=C/c3ccc([N+](=O)[O-])cc3[N+](=O)[O-])cc2)c([N+](=O)[O-])c1`: the TGI in assay [1], in [2], in [3], in assay [5], in assay [6] and in assay [7] was > 100 µM each time. For the same compound, the TGI in assay [8] and in assay [9] was > 100 µM throughout.
As for `CC1(C)CC2=NO[Se]3=C2C(=NO3)C1`, the TGI was 11.4 µM in assay [1]; 5.65 µM in assay [2]; 16.4 µM in assay [3]; 56.3 µM in [4]; 3.28 µM in assay [5]; 13.1 µM in assay [6]. For the same compound, the TGI in [7] was 6.96 µM; in [8] it was 19.5 µM; in assay [9] it was 6.63 µM.
On to `CN(C)c1ccc(/C=C2\CCc3ccccc3C2=O)cc1Br`, for which the TGI is > 100 µM in assay [1]; > 100 µM in assay [2]; > 100 µM in assay [3]; > 100 µM in [4]; 76.8 µM in assay [5]; > 100 µM in [6]. The TGI in [7], in [8] and in [9] was > 100 µM in each case.
As to `CNS(=O)(=O)NNS(=O)(=O)c1ccc(C)cc1`, the TGI in [1], in assay [2], in assay [3], in [4], in [5] and in [6] was > 100 µM in each case. Also, the TGI in [8] and in [9] was > 100 µM throughout.
As for `Nc1ccccc1C(=O)/C=C/c1ccccc1O`, the TGI in assay [1], in [2], in [3], in assay [4], in [5] and in assay [6] was > 100 µM throughout. In addition, the TGI in [7] was 68.9 µM; in assay [8], > 100 µM; in [9], > 100 µM.
Turning to `CN(C)CCNC(=O)c1cccc2c1nc(-c1cccnc1)c1ccccc12`, the TGI in assay [1] is 85.7 µM; in assay [2], 15.9 µM; in assay [3] it was 54.8 µM; in assay [4] it was 22.2 µM; in assay [5] it was 15.1 µM; in assay [6], 31.2 µM. For the same compound, the TGI in assay [7] is 22 µM; in assay [8], 9.74 µM; in [9], 15.2 µM.
For the compound `CC1(C)CC(=O)C(C(=O)Nc2cccs2)=C(O)C1`, the TGI in assay [1] is 43.6 µM; in [2], 95.7 µM; in assay [3], > 100 µM; in assay [4], > 100 µM; in assay [5], > 100 µM; in assay [6] it was > 100 µM. In addition, the figures for the TGI in [7], in [8] and in assay [9] were 59.3 µM, > 100 µM and > 100 µM, respectively.
Take `CCC12C=C(C(=O)OC)N3c4ccccc4C4CCN(CCC1)C2C43` (stereo not drawn): the TGI in assay [1], in [2], in [3], in assay [4], in assay [5] and in assay [6] was > 100 µM each time. The TGI in assay [7], in [8] and in assay [9] was > 100 µM each time.
In the case of `Cc1ccccc1NC(=O)CC(=O)NNCC(=O)Nc1nnc(-c2ccccc2)s1`, the TGI in assay [1] was > 100 µM; in assay [2], > 100 µM; in [3] it was > 100 µM; in assay [4], > 100 µM; in assay [5], > 100 µM; in assay [7] it was 63.8 µM. The TGI in assay [8] and in [9] was > 100 µM each time.
As for `O=C(O)c1cn(C2CC2)c2cc(N3CCN(C(=O)N(c4ccccc4)c4nc(-c5ccccc5)cs4)CC3)c(F)cc2c1=O`, the GI50 in [3] is 0.378 µM; in assay [4], 0.389 µM; in [5], 0.717 µM; in [7], 0.334 µM; in [8] it was 1.09 µM. Besides, the TGI was > 100 µM in [3]; > 100 µM in [4]; > 100 µM in assay [5]; 2.8 µM in assay [7]; 32.6 µM in assay [8].
As for `CC(C)(C)C1CC[C@H]2c3c([nH]c4ccccc34)[C@H]3C(=O)N(c4ccc(F)cc4)C(=O)[C@H]3[C@H]2C1` (stereo partly drawn), the TGI in assay [1] was found to be 32.5 µM; in [2], 33.4 µM; in [3] it was 25.2 µM; in [4], 30.8 µM; in [5], 35.8 µM; in assay [6], 32 µM. Also, the TGI in [7] was determined as 23 µM; in assay [8], 30.8 µM; in assay [9], 29.6 µM.
Consider `N#CC1(CCCCl)CCCCC1`, for which the TGI in [2], in [3], in assay [4], in assay [5], in assay [6] and in assay [7] was > 100 µM in each case. For the same compound, the TGI in [8] and in assay [9] was > 100 µM in each case.
As to `O=C1c2ccccc2N1C(=O)c1ccccc1[N+](=O)[O-]`, the TGI in [1], in [2], in assay [3], in assay [4], in assay [5] and in [6] was > 100 µM in each case. In addition, the TGI in [7], in assay [8] and in assay [9] was > 100 µM throughout.
